Measured values reported in ChEMBL document CHEMBL5154936, “Scaffold Hopping Strategy to Identify Prostanoid EP4 Receptor Antagonists for Cancer Immunotherapy” (J Med Chem, 2022).
Values belong to the molecule of their own block, whether it stands above or below them.

What was measured:
[1] = target: Prostaglandin E2 receptor EP4 subtype (Homo sapiens, UniProt P35408); test: Antagonist activity at human EP4 receptor transfected in CHO/Galpha16 cells preincubated for 15 mins followed by PGE2 addition by calcium flux assay; format: functional, cell-based
[2] = Metabolic stability in mouse liver microsomes assessed as half life; format: ADME, Microsome
CT26 [3] = test: Cytotoxicity against mouse CT26 cells assessed as reduction in cell viability incubated for 72 hrs by CCK-8 assay; details: CT26, 72 h
[4] = Metabolic stability in human liver microsomes assessed as half life; format: ADME, Microsome
[5] = Metabolic stability in human liver microsomes assessed as intrinsic clearance; format: ADME, Microsome; details: read-out: CLH
CYP2D6 = CYP2D6 (Homo sapiens, UniProt P10635); test: Inhibition of CYP2D6 (unknown origin) at 20 uM; format: ADME
[6] = target: T1, Prostaglandin E2 receptor EP1 subtype (Homo sapiens, UniProt P34995); test: Antagonist activity at human EP1 receptor transfected in CHO/Galpha16 cells preincubated for 15 mins followed by PGE2 addition by calcium flux assay; format: functional, cell-based
T1 sequence (P34995 whole entry): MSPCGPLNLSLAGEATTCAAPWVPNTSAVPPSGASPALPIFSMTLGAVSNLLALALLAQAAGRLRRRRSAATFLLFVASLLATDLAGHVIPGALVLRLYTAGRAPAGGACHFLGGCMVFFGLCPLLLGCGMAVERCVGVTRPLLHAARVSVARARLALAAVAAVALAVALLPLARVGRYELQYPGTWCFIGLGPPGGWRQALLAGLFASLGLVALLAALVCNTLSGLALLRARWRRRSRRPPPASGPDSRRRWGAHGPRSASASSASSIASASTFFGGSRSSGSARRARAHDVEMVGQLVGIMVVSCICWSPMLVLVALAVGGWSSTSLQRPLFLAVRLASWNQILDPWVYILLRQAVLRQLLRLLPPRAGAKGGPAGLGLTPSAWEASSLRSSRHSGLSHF

[7] = Cytotoxicity against HEK293 cells assessed as reduction in cell viability incubated for 72 hrs by CCK-8 assay; format: toxicity, cell-based; details: human
CYP2E1 = CYP2E1 (Homo sapiens, UniProt P05181); test: Inhibition of CYP2E1 (unknown origin) at 20 uM; format: ADME
3LL cell line = test: Cytotoxicity against mouse 3LL cells assessed as reduction in cell viability incubated for 72 hrs by CCK-8 assay
[8] = Metabolic stability in mouse liver microsomes assessed as parent compound remaining at 10 uM measured after 60 mins; format: ADME, Microsome; details: read-out: Stability
EMT6 = test: Cytotoxicity against mouse EMT6 cells assessed as reduction in cell viability incubated for 72 hrs by CCK-8 assay; details: EMT6, 72 h
[9] = Metabolic stability in human liver microsomes assessed as parent compound remaining at 10 uM measured after 60 mins; format: ADME, Microsome; details: read-out: Stability
CYP1A2 = target: T2, CYP1A2 (Homo sapiens, UniProt P05177); test: Inhibition of CYP1A2 (unknown origin) at 20 uM; format: ADME
T2 sequence (P05177 whole entry): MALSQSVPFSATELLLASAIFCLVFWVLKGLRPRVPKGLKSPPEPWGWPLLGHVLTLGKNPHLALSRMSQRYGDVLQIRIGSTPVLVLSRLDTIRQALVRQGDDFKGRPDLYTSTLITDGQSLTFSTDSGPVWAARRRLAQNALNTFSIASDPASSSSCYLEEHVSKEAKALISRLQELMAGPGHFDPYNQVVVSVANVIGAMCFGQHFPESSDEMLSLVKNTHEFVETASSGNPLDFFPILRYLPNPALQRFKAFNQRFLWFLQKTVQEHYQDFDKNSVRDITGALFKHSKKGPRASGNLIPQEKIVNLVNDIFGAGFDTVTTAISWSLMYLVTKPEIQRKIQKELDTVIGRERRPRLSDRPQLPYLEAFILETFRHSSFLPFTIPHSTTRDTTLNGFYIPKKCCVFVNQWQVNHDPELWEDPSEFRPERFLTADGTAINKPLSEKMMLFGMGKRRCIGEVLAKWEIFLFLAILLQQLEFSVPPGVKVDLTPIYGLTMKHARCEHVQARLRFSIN

[10] = Metabolic stability in mouse liver microsomes assessed as intrinsic clearance; format: ADME, Microsome; details: read-out: CLH
[11] = target: Prostaglandin E2 receptor EP2 subtype (Homo sapiens, UniProt P43116); test: Antagonist activity at human EP2 receptor transfected in CHO/Galpha16 cells preincubated for 15 mins followed by PGE2 addition by calcium flux assay; format: functional, cell-based
CYP2B6 = target: T3, CYP2B6 (Homo sapiens, UniProt P20813); test: Inhibition of CYP2B6 (unknown origin) at 20 uM; format: ADME
T3 sequence (P20813 whole entry): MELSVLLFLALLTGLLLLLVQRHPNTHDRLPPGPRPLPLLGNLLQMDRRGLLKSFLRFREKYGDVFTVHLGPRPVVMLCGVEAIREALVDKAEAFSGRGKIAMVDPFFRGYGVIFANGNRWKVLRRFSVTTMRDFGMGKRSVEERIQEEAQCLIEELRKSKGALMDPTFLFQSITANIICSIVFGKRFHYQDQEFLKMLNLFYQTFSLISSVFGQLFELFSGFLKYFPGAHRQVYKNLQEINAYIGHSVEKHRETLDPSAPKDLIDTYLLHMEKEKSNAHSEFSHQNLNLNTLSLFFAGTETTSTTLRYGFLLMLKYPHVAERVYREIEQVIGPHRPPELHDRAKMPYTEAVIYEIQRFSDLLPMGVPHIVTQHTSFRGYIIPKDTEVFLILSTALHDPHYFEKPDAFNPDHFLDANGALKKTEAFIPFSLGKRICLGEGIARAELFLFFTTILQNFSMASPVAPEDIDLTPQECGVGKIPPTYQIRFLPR

[12] = target: T4, Prostaglandin E2 receptor EP3 subtype (Homo sapiens, UniProt P43115); test: Antagonist activity at human EP3 receptor transfected in CHO/Galpha16 cells preincubated for 15 mins followed by PGE2 addition by calcium flux assay; format: functional, cell-based
T4 sequence (P43115 whole entry): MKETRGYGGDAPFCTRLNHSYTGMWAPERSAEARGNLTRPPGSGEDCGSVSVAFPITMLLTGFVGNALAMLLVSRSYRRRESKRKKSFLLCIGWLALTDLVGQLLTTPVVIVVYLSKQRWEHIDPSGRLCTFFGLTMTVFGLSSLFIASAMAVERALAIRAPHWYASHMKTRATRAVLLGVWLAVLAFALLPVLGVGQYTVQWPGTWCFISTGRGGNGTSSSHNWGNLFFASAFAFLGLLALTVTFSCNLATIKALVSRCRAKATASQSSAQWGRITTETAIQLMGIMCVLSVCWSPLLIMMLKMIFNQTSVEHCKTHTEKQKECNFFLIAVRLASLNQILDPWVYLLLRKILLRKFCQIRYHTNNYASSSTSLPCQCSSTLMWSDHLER

[13] = target: Prostaglandin E2 receptor EP4 subtype (Mus musculus, UniProt P32240); test: Antagonist activity at mouse EP4 receptor transfected in CHO/Galpha16 cells preincubated for 15 mins followed by PGE2 addition by calcium flux assay; format: functional, cell-based
Panc02 = test: Cytotoxicity against mouse Panc02 cells assessed as reduction in cell viability incubated for 72 hrs by CCK-8 assay; details: Panc02, 72 h
CYP2C9 = CYP2C9 (Homo sapiens, UniProt P11712); test: Inhibition of CYP2C9 (unknown origin) at 20 uM; format: ADME
CT26 [14] = test: Antitumor activity against mouse CT26 cells allografted in BALB/c mouse assessed as tumor growth inhibition at 75 mg/kg, po administered once a day for 14 days; format: functional; details: CT26, 336 h, time 14 day, read-out: TGI

Prostaglandin E2 receptor EP4 subtype (Mus musculus, UniProt P32240), sequence (P32240 whole entry): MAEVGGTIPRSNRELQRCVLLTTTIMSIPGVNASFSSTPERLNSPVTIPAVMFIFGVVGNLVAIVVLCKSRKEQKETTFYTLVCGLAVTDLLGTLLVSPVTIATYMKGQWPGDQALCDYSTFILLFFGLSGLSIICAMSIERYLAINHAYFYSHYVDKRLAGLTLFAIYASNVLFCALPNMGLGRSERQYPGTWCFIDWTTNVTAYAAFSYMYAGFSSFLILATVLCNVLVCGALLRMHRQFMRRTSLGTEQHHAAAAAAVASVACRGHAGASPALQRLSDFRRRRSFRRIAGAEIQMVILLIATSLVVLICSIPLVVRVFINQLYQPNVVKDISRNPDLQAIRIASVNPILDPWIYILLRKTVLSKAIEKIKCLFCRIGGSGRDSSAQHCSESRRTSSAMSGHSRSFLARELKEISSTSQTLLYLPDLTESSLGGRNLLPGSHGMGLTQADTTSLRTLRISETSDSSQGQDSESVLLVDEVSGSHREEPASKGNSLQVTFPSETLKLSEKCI
CYP2C9, sequence (P11712 whole entry): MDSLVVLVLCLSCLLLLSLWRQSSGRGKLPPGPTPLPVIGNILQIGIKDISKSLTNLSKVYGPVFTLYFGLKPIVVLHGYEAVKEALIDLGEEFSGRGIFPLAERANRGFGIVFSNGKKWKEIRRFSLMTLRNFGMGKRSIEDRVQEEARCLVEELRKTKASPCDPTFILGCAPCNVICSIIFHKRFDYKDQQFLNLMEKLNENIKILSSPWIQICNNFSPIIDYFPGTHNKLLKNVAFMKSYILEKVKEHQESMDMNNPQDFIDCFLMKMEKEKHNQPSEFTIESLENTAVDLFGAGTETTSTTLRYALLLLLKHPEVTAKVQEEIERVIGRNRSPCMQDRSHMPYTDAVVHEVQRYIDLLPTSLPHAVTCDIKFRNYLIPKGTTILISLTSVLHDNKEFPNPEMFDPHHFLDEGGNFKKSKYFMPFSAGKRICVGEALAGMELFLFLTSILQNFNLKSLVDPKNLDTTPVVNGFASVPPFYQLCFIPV
CYP2E1, sequence (P05181 whole entry): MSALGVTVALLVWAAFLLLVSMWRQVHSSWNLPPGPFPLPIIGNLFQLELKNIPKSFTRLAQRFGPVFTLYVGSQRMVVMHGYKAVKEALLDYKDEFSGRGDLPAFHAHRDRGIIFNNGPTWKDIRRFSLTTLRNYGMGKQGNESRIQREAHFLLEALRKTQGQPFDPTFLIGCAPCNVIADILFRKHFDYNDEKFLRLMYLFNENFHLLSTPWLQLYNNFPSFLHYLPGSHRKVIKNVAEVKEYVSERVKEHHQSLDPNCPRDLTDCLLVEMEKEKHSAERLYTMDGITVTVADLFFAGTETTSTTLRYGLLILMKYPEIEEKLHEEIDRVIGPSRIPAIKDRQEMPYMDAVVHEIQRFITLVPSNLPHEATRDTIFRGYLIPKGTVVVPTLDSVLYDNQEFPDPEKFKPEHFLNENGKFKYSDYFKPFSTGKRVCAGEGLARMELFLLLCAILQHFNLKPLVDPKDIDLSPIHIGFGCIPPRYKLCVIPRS
Prostaglandin E2 receptor EP4 subtype (Homo sapiens, UniProt P35408), sequence (P35408 whole entry): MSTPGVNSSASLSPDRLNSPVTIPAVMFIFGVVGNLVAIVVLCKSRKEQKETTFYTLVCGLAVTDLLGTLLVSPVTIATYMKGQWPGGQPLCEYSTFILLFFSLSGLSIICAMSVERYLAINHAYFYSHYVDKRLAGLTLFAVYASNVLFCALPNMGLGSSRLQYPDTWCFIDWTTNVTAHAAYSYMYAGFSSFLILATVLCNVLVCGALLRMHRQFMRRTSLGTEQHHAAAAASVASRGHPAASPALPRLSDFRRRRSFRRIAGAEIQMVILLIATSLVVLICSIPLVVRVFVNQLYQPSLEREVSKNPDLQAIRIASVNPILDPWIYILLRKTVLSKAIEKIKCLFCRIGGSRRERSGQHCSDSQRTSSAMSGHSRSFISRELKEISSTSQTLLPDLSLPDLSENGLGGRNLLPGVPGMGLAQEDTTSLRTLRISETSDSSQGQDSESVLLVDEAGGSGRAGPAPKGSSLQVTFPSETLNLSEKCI
Prostaglandin E2 receptor EP2 subtype, sequence (P43116 whole entry): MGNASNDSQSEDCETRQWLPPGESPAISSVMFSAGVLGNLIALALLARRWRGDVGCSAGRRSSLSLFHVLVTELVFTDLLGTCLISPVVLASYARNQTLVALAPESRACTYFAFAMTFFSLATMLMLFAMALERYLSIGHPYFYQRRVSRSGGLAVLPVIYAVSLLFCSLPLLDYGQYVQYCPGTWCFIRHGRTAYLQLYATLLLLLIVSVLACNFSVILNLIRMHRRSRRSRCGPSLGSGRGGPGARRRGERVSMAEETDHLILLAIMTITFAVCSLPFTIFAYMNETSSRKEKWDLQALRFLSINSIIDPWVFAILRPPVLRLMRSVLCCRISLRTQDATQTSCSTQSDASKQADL
CYP2D6, sequence (P10635 whole entry): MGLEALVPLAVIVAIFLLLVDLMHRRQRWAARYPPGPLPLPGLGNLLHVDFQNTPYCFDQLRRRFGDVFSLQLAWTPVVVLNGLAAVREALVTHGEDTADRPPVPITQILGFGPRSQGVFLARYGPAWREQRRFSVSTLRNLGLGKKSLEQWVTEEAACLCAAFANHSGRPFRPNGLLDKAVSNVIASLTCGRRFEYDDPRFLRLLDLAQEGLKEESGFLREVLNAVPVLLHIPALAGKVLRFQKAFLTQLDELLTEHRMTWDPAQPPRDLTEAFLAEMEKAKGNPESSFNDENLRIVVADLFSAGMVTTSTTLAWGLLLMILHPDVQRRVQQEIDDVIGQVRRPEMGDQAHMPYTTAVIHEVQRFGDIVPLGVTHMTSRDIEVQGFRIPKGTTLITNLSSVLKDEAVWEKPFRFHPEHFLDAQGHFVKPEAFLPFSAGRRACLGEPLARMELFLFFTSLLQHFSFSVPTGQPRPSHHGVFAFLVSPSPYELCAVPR

IC50 [1]: > 1000 nM
SMILES: CC(=O)N1CCc2c(sc(CCc3ccc(F)cc3)c2C(=O)N[C@@H](C)c2ccc(C(=O)O)cc2)C1

half-life [2]: > 2.42 h
half-life [4]: 0.81 h
microsomal CLint [5]: 28.5 µL/min/mg
inhibition at 20 µM (CYP2D6): 76%
IC50 [6]: > 10000 nM
inhibition at 20 µM (CYP2E1): 39%
IC50 [1]: 19.1 nM
remaining at 1 h, 10 µM [8]: 75.7%
remaining at 1 h, 10 µM [9]: 40.7%
inhibition at 20 µM (CYP1A2): 88%
microsomal CLint [10]: < 9.6 µL/min/mg
IC50 [11]: > 10000 nM
inhibition at 20 µM (CYP2B6): 76%
IC50 [12]: > 10000 nM
IC50 [13]: 50.1 nM
inhibition at 20 µM (CYP2C9): 58%
SMILES: C[C@H](NC(=O)c1c(CCc2ccc(F)cc2)sc2c1CCOC2)c1ccc(C(=O)O)cc1
IC50 (CT26 [3]): > 100000 nM
IC50 at 72 h [7]: > 100000 nM
IC50 (3LL cell line): > 100000 nM
IC50 (EMT6): > 100000 nM
IC50 (Panc02): > 100000 nM

IC50 [1]: 3.2 nM
SMILES: C[C@H](NC(=O)c1c(Cc2cccc(Cl)c2)sc2c1CCOC2)c1ccc(C(=O)O)cc1

IC50 [1]: 642 nM
SMILES: C[C@H](NC(=O)c1c(C#Cc2ccc(=O)[nH]c2)sc2c1CCOC2)c1ccc(C(=O)O)cc1

IC50 [1]: 12.4 nM
SMILES: COc1cccc(C#Cc2sc3c(c2C(=O)N[C@@H](C)c2ccc(C(=O)O)cc2)CCOC3)c1

IC50 [1]: 5.1 nM
SMILES: C[C@H](NC(=O)c1c(Cc2cccc(F)c2)sc2c1CCOC2)c1ccc(C(=O)O)cc1

IC50 [1]: 9.5 nM
SMILES: C[C@H](NC(=O)c1c(Cc2ccc(C(C)(C)C)cc2)sc2c1CCOC2)c1ccc(C(=O)O)cc1

IC50 [1]: 36.2 nM
SMILES: C[C@H](NC(=O)c1c(CCc2ccc(F)cc2)sc2c1CC(C)(C)OC2)c1ccc(C(=O)O)cc1

IC50 [1]: 1 nM
SMILES: O=C(O)c1ccc(C2(NC(=O)c3c(Cc4cccc(C(F)(F)F)c4)sc4c3CCOC4)CC2)cc1

IC50 [1]: 2.7 nM
SMILES: CC(C)c1ccc(Cc2sc3c(c2C(=O)N[C@@H](C)c2ccc(C(=O)O)cc2)CCOC3)cc1

IC50 [1]: > 1000 nM
SMILES: COC(=O)c1ccc([C@H](C)NC(=O)c2c(Cc3ccc(F)cc3)sc3c2CCOC3)cc1

IC50 [1]: 187 nM
SMILES: CON(C)C(=O)c1ccc([C@H](C)NC(=O)c2c(Cc3ccc(F)cc3)sc3c2CCOC3)cc1

IC50 [6]: > 10000 nM
IC50 [1]: 2.1 nM
IC50 [11]: > 10000 nM
IC50 [12]: > 10000 nM
SMILES: COc1ccc(Cc2sc3c(c2C(=O)N[C@@H](C)c2ccc(C(=O)O)cc2)CCOC3)cc1

half-life [2]: > 2.42 h
half-life [4]: > 2.42 h
microsomal CLint [5]: < 9.6 µL/min/mg
inhibition at 20 µM (CYP2D6): 62%
IC50 [6]: > 10000 nM
inhibition at 20 µM (CYP2E1): 26%
IC50 [1]: 2.1 nM
remaining at 1 h, 10 µM [8]: 87.9%
remaining at 1 h, 10 µM [9]: 90%
inhibition at 20 µM (CYP1A2): 69%
microsomal CLint [10]: < 9.6 µL/min/mg
IC50 [11]: > 10000 nM
inhibition at 20 µM (CYP2B6): 68%
IC50 [12]: > 10000 nM
IC50 [13]: 336 nM
inhibition at 20 µM (CYP2C9): 24%
SMILES: C[C@H](NC(=O)c1c(Cc2ccc(C(F)(F)F)cc2)sc2c1CCOC2)c1ccc(C(=O)O)cc1
IC50 (CT26 [3]): > 100000 nM
IC50 at 72 h [7]: > 100000 nM
IC50 (3LL cell line): > 100000 nM
IC50 (EMT6): > 100000 nM
IC50 (Panc02): > 100000 nM

half-life [2]: > 2.42 h
half-life [4]: > 2.42 h
microsomal CLint [5]: < 9.6 µL/min/mg
inhibition at 20 µM (CYP2D6): 65%
inhibition at 20 µM (CYP2E1): 21%
remaining at 1 h, 10 µM [8]: 95.7%
remaining at 1 h, 10 µM [9]: 83.6%
inhibition at 20 µM (CYP1A2): 59%
microsomal CLint [10]: < 9.6 µL/min/mg
inhibition at 20 µM (CYP2B6): 77%
IC50 [13]: 101 nM
inhibition at 20 µM (CYP2C9): 33%
SMILES: C[C@H](NC(=O)c1c(C(F)F)nn(C)c1Oc1cccc(C(F)(F)F)c1)c1ccc(C(=O)O)cc1 [PALUPIPRANT]
inhibition in vivo at 75 mg/kg (CT26 [14]): 39.9%
IC50 at 72 h [7]: > 100000 nM
